Source: patent publication US20250367283A1, “MEVALONATE PATHWAY INHIBITOR AS HIGHLY-EFFICIENT VACCINE ADJUVANT” (Tsinghua University, priority 2015, published 2025)
pIC50: −log10 of the molar value.

What was measured:
[1] = test system: anti-OVA IgM and IgG antibodies; test: OVA evaluation system: adjuvant activity in antibody titer in mice; format: in vivo; details: for adjuvant effect among bisphosphonic acid compounds / adjuvant effect vs 8 commercially available bisphosphonic acid compounds: 100 ug; for adjuvant effect among TH-Z80 series: intramuscular, OVA
Experimental: OVA evaluation system was used to determine adjuvant activity in antibody titer.
Mice of C57B/6 strain were used. The mice in the experimental group were injected with the obtained mixture of each of the statins and OVA antigen through soles injection, with 20 μl for each mouse. The mice in the control group were injected with a 1:1 mixture of PBS or DMSO (10 μl) and 10 μl OVA antigen (PBS or DMSO is 10 μl, respectively, and the antigen is 10 μl) through soles injection, with 20 μl for each mouse. On Day 7 and Day 14 after immunization, blood was taken from the mice's orbits, with 100 μl was taken from each mouse. The obtained blood was left at 4° C. overnight, and centrifuged at 6000 rpm for 8 min. The supernatant serum was removed and the titers of anti-OVA IgM and IgG antibodies in the serum were determined.
Test of the OVA antibody titer: The OVA protein was diluted to a concentration of 2 μg/ml with a carbonate solution of pH 9.6, coated in a 96-well ELISA plate at 50 μl per well, and left at 4° C. overnight. The ELISA plate was washed five times with PBS containing 0.05% Tween 20, blocked with 1% BSA solution at 200 μl per well, and incubated at room temperature for 2 h. The ELISA plate was washed five times with PBST (Phosphate Buffered Saline with Tween), a 2-fold serial dilution of the mouse serum after immunized with OVA was added at 50 μl per well and incubated at room temperature for 2 h. After the ELISA plate was washed five times with PBST, HRP (horseradish peroxidase)-labeled goat-anti-mouse IgM or IgG antibody was added and incubated at room temperature for 45 min. The ELISA plate was washed five times with PBST, and a color developing solution of sodium citrate OPD (o-phenylenediamine) was added. After 10 min of color development in the dark, sulfuric acid was added to terminate the reaction. The reading was performed with ELIASA OD490. The maximum serum dilution factor, when the ratio of light absorptions of the experimental group to the control group was >2.0, was the titer of the anti-OVA antibody in the serum.
Each test compound was formulated at a concentration of 2 mg/ml and the concentration of OVA antigen was 2 mg/ml. Each compound was mixed with OVA at 1:1. Each C57B/6 mouse in the experimental group was injected with 100 μl of the mixture (containing 50 μl of the antigen and 50 μl of the compound) by intramuscular injection at the right thigh. On Day 7 and Day 14 after immunization, blood was taken from the mice's orbit, and 100 μl was taken for each mouse. The obtained blood was allowed to stand at 4° C. overnight, and centrifuged at 6000 rpm for 8 min. The supernatant serum was removed, and the titers of anti-OVA IgM and IgG antibodies in the serum were determined.
Method: each of the test compounds (the 10 bisphosphonates as described above) was mixed with the OVE antigen at 1:1, and the concentrations of bisphosphonic acid and OVA were both 10 mg/ml. Mice of C57B/6 strain were used. The mice in the experimental group were injected with the mixture of each of the test compounds and OVA antigen through soles injection, with 20 μl for each mouse, and wherein the amounts of OVA antigen and each of the test compounds were both 100 ug. The mice in the control group were injected with a 1:1 mixture of […] and 10 μl OVA antigen through sole injection. On Day 7 and Day 14 after immunization, blood was taken from the mice's orbits, and 100 μl was taken from each mouse.
The obtained blood was left at 4° C. overnight, and centrifuged at 6000 rpm for 8 min. The supernatant serum was removed, and the titers of anti-OVA IgM and IgG antibodies in the serum were determined.
Method: TH-Z144 and TH-Z145 were prepared at the concentration of 10 mg/ml, the concentration of OVA antigen was also 10 mg/ml, and the compound and the antigen were mixed at 1:1. Mice of C57B/6 strain were used.

[2] = test system: PvGGPPS (geranylgeranyl pyrophosphate synthase from Plasmodium); test: In vitro PvGGPPS enzymatic activity assay; format: biochemical; details: GPP and IPP substrates
Experimental: PvGGPPs with 6 consecutive His at the N-terminus was induced to express in vitro, collected, and purified by Ni column. In vitro PvGGPPs enzymatic activity assay was performed in a 96-well plate at 200 μl of solution per well. The buffer of the system was 25 mM HEPES, 2.5 mM MgCl2, pH 7.4. Using GPP and IPP as reaction substrates, a 360 nm continuous spectrophotometric detection was performed in a phosphate lyase system. ORIGIN 8.0 software was used to plot and fit.

[3] = test system: MDA-MB-231 cells; test: MDA-MB-231 proliferation MTT test; format: cell-based, human; details: 72 hours
Experimental: • Drug dissolution: […] The prepared bisphosphonate stock solution was diluted with DMEM complete medium. The maximum concentration was 1 mM. The dilution was performed serially in a ratio of 1:3.2 with a total of 11 concentration gradients; a. MDA-MB-231 cells were digested the day before. Centrifugation was performed at 1000 rmp for 3 min. The cells were counted. The cells were seeded into a 96-well plate at 3000 cells/well in a volume of 100 μl per well and cultured for 14-16 h. It should be noted that the cell count should be accurate, and the amount of cells seeded per well should be consistent. The cell suspension can be gently shaken in the intermittence of plating, or a row of cells were plated and the cell suspension was pipetted gently with a pipette. The speed of pipetting into the 96-well plate with a pipette should not be too fast or too slow, in order to avoid uneven distribution of cells in the plate, affecting the experiments; the wells at the fringe of the 96-well plate will evaporate slightly faster and the concentration of the solution will change slightly faster. Under normal situation, the central 60 wells should be selected for stimulation. Also, the pipetted liquid should be prevented from creating bubbles. b. After the cells had adhered, the liquid in the 96-well plate was pipetted out and discarded. […] c. 72 hours after the action of drug, the prepared MTT solution (immediately before use, a certain amount of MTT powder was weighed and dissolved in PBS at 5 mg/ml, under dark, filter with 0.22 filter membrane) was added directly to each well with 20 μl per well and continued to culture for 4 hours; d. The filter paper (which can be replaced by an absorbent paper) was laid, and the plate was inverted gently (be careful to prevent the crystal in the well from dropping). After the liquid in the wells was removed, 150 μl of DMSO was added to dissolve the crystals, and the mixture was shaken thoroughly with a shaker for a period of time just to dissolve the crystals. The absorbance (OD value) of each well was measured at 570 nm with ELIASA. The mean value of blank control was calculated as OD Blank. OD value for each well=OD measured-OD Blank. ODNT mean value was calculated. […] Mean and standard error were then calculated. The mean and standard error of each group of drug concentration (uM) and corresponding drug inhibition rate were fitted by Graph Prism software to obtain the IC50 of the drug.

[4] = bisphosphonic acids 100 ug with OVA, soles injection, Day 7 and Day 14

Molecule | IC50 [2] | pIC50 [3] | adjuvant effect among TH-Z80 series [1] | other results
CCCCCCOc1ccnc(NC(P(=O)(O)O)P(=O)(O)O)c1 [TH-Z93, (((4-(hexyloxy)pyridin-2-yl)amino)methylene)bisphosphonic acid] | – | – | – | adjuvant effect among bisphosphonic acid compounds ([1]; soles injection): most significant adjuvant effects; adjuvant effect vs 8 commercially available bisphosphonic acid compounds ([1]; soles injection): much higher than any of the 8 commercially available bisphosphonic acid compounds; IgM and IgG antibody titers vs PBS control [1, 4]: more than five times higher
CCCCCCOc1ccc2c(c1)ncn2CC(O)(P(=O)(O)O)P(=O)(O)O [TH-Z80] | 0.37 µM | 4.12 | most significant adjuvant effects | adjuvant effect among bisphosphonic acid compounds ([1]; soles injection): most significant adjuvant effects; adjuvant effect vs 8 commercially available bisphosphonic acid compounds ([1]; soles injection): much higher than any of the 8 commercially available bisphosphonic acid compounds; IgM and IgG antibody titers vs PBS control [1, 4]: more than five times higher; antibody titers vs PBS control at different immunization sites ([1]; soles, subcutaneous, muscle, abdominal and nasal mucosa): significantly increased
CCCCCCCOc1ccc2c(c1)ncn2CC(O)(P(=O)(O)O)P(=O)(O)O [TH-Z152] | 0.95 µM | 3.37 | most significant adjuvant effects | –
CCCCCCCCOc1ccc2c(c1)ncn2CC(O)(P(=O)(O)O)P(=O)(O)O [TH-Z81] | 2.07 µM | 4.22 | most significant adjuvant effects | –
CCCCCCCCCOc1ccc2c(c1)ncn2CC(O)(P(=O)(O)O)P(=O)(O)O [TH-Z153] | 1.09 µM | 3.63 | most significant adjuvant effects | –
CCC(C)(C)C(=O)O[C@H]1C[C@@H](C)C=C2C=C[C@H](C)[C@H](CC[C@@H]3C[C@@H](O)CC(=O)O3)[C@H]21 [simvastatin, reference compound] | – | – | – | adjuvant effect among statin drugs ([1]; statins with OVA, soles injection): most significant adjuvant effects; IgM and IgG antibody titers vs PBS or DMSO control ([1]; statins with OVA, soles injection, Day 7 and Day 14): significantly higher titers
(2-(3-(octyloxy)phenyl)ethane-1,1-diyl)bisphosphonic acid [TH-Z145] | – | – | – | IgM and IgG antibody titers vs PBS control ([1]; GGPPS inhibitors 100 μg with OVA, right sole, Day 7 and Day 14): significantly higher titers
